Measurements: ChEMBL document CHEMBL1201862, “PubChem BioAssay data set” (2004)
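Assay format: 96-well plates, 48-hour exposure. Here, GI50 denotes the concentration required for 50% inhibition of growth.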 The source made the active and inactive calls. Rule as the data show it: active = GI50 up to about 1.1 µM and inactive = higher. Where a SMILES comes first, the peptide text is derived from it. [ ]: non-standard residue; d: D form. Phe(4-NO2) = N[CH](Cc1ccc([N+](=O)[O-])cc1)C(=O)O

Key:
Experiment in all cases: DTP human tumour cell line panel, 48 h
[1] = tested on: SNB-19
[2] = tested on: M14
[3] = tested on: IGROV-1
[4] = tested on: ACHN
[5] = tested on: SK-MEL-5
[6] = tested on: SF-268
[7] = tested on: KM12
[8] = tested on: HCT-15
[9] = tested on: NCI-H460
[10] = tested on: SNB-75
[11] = tested on: 786-0
[12] = tested on: UACC-257
[13] = tested on: MDA-MB-231
[14] = tested on: TK-10
[15] = tested on: HOP-62
[16] = tested on: K562
[17] = tested on: HL-60
[18] = tested on: A498
[19] = tested on: BT-549

Measured: GI50

COC(=O)CCC(NC(=O)C(CCC(=O)OC)NC(=O)C(CCC(=O)OC)NC(=O)C(CCC(=O)OC)NC(=O)C(CCC(=O)OC)NC(=O)C(Cc1ccc([N+](=O)[O-])cc1)NC(=O)C(CCC(=O)OC)NC(=O)C(CCC(=O)OC)NC(=O)C(CCC(=O)OC)NC(=O)C(CCC(=O)OC)NC(=O)C(CCC(=O)OC)NC(C)=O)C(N)=O (stereo unspecified) (Ac-E(OMe)E(OMe)E(OMe)E(OMe)E(OMe)[Phe(4-NO2)]E(OMe)E(OMe)E(OMe)E(OMe)E(OMe)-NH2; configuration not given here)
> 10 µM: [8]
inactive: [1] > 100 µM | [2] 37.9 µM | [3] > 100 µM | [4] > 100 µM | [5] 26.1 µM | [6] > 100 µM | [7] > 100 µM | [9] > 100 µM | [10] > 100 µM | [11] > 100 µM | [12] > 100 µM | [13] 48.1 µM | [14] > 100 µM

CN1c2ccccc2C(=O)NC12CCN(CC1COc3ccccc3O1)CC2 (stereo unspecified)
inactive: [1] 31.3 µM | [2] 27.8 µM | [3] 45.1 µM | [4] 19.6 µM | [5] 16.2 µM | [6] > 100 µM | [7] 32.6 µM | [9] 21.3 µM | [10] > 100 µM | [11] 69.7 µM | [12] 22 µM | [15] 49.8 µM | [16] 31.3 µM | [17] 25.4 µM | [18] 20.3 µM | [14] 44.8 µM

CN1C(=O)C(CCO)(C(C)(C)C)c2ccccc21 (stereo unspecified)
> 100 µM: [8]
inactive: [1] > 100 µM | [2] > 100 µM | [4] > 100 µM | [5] > 100 µM | [6] > 100 µM | [7] > 100 µM | [9] > 100 µM | [10] 68.1 µM | [11] > 100 µM | [12] > 100 µM | [15] > 100 µM | [16] > 100 µM | [17] > 100 µM | [13] > 100 µM

COc1ccc(/N=N/C(=O)NC(Cc2ccccc2)C(=O)O)cc1 (stereo unspecified)
inactive: [1] > 100 µM | [2] > 100 µM | [3] > 100 µM | [4] > 100 µM | [5] > 100 µM | [6] > 100 µM | [7] > 100 µM | [9] > 100 µM | [10] > 100 µM | [11] > 100 µM | [12] > 100 µM | [19] > 100 µM | [15] > 100 µM | [16] > 100 µM | [17] > 100 µM | [18] > 100 µM | [14] > 100 µM
> 100 µM: [8]

CCCCOC(=O)NC(Nc1ccc(S(=O)(=O)Nc2ccc(OC)nn2)cc1)(C(F)(F)F)C(F)(F)F
> 100 µM: [8]
inactive: [1] > 100 µM | [2] > 100 µM | [3] > 100 µM | [4] > 100 µM | [5] > 100 µM | [6] > 100 µM | [7] > 100 µM | [9] > 100 µM | [11] > 100 µM | [12] > 100 µM | [15] > 100 µM | [16] > 100 µM | [17] > 100 µM | [18] > 100 µM | [13] > 100 µM | [14] > 100 µM

CN(N=O)C(=O)Nc1c[nH]c(=O)[nH]c1=O
> 100 µM: [8]
inactive: [1] > 100 µM | [2] > 100 µM | [3] > 100 µM | [4] > 100 µM | [5] > 100 µM | [7] > 100 µM | [10] > 100 µM | [11] > 100 µM | [12] > 100 µM | [15] > 100 µM | [16] > 100 µM | [17] > 100 µM | [18] > 100 µM | [13] > 100 µM | [14] > 100 µM

CCOC(=O)Nc1ccc(C)c(NC(=O)OCC)c1
inactive: [1] > 100 µM | [2] > 100 µM | [3] 55.6 µM | [4] > 100 µM | [5] > 100 µM | [6] > 100 µM | [7] > 100 µM | [9] > 100 µM | [10] > 100 µM | [11] > 100 µM | [12] > 100 µM | [15] > 100 µM | [16] > 100 µM | [17] > 100 µM | [18] > 100 µM | [13] > 100 µM | [14] > 100 µM
> 100 µM: [8]

CCOC(=O)Cc1cc(=O)[nH]c(-n2[nH]c(C)c(CCO)c2=O)n1
> 100 µM: [8]
inactive: [1] > 100 µM | [2] > 100 µM | [3] > 100 µM | [4] > 100 µM | [5] > 100 µM | [6] > 100 µM | [7] > 100 µM | [9] > 100 µM | [11] > 100 µM | [12] > 100 µM | [15] > 100 µM | [16] > 100 µM | [17] > 100 µM | [18] > 100 µM | [13] > 100 µM | [14] > 100 µM

CC(=O)OCC(C)C1=C(OC(C)=O)C(=O)C2(C)C/C=C(/C)CC/C=C(\C)CCC(OC(C)=O)C(C)CCC12 (stereo unspecified)
inactive: [1] 17.3 µM | [2] 16.6 µM | [3] 14.4 µM | [4] 18.2 µM | [5] 15.3 µM | [6] 15.4 µM | [7] 17.8 µM | [9] 3.55 µM | [10] 24.7 µM | [11] 13.7 µM | [12] 17.5 µM | [15] 14.2 µM | [16] 13.3 µM | [17] 10.9 µM | [13] 14.3 µM | [14] 19.6 µM
16.9 µM: [8]

O=C(/C=C/c1cccs1)c1ccc(Cl)s1
18.2 µM: [8]
inactive: [1] 15.7 µM | [2] 38.8 µM | [3] > 10 µM | [4] > 100 µM | [5] 50.7 µM | [6] 38.7 µM | [7] 21.8 µM | [9] 72.8 µM | [10] 56 µM | [11] > 10 µM | [12] 39.8 µM | [15] > 100 µM | [16] 31.3 µM | [17] 22.1 µM | [18] 55.7 µM | [13] 40.3 µM | [14] > 100 µM

O=C1CCC2CCC1C2 (stereo unspecified)
inactive: [1] > 100 µM | [2] > 100 µM | [4] > 100 µM | [5] > 100 µM | [6] > 100 µM | [7] > 100 µM | [9] > 100 µM | [10] > 100 µM | [11] > 100 µM | [12] > 100 µM | [15] > 100 µM | [16] > 100 µM | [17] > 100 µM | [18] > 100 µM | [13] > 100 µM | [14] > 100 µM
> 100 µM: [8]

CC(c1ccccc1)n1c2ccccc2c2c(N)ncnc21 (stereo unspecified)
inactive: [1] 16.5 µM | [2] 18.8 µM | [3] 18.9 µM | [4] 11.7 µM | [5] 19.5 µM | [6] 21.1 µM | [9] 24.3 µM | [10] 1.4 µM | [11] 14.9 µM | [12] 17.2 µM | [15] 17.5 µM | [16] 24.7 µM | [17] 23.9 µM | [18] 15.7 µM | [13] 19.1 µM | [14] 17.1 µM
23.4 µM: [8]

O=c1[nH]c(=O)n(C2CC(O)C(CO)O2)cc1/N=N/NCCCc1ccccc1 (stereo unspecified)
inactive: [2] > 100 µM | [3] > 100 µM | [4] > 100 µM | [5] > 100 µM | [6] > 100 µM | [7] > 100 µM | [9] > 100 µM | [11] > 100 µM | [12] > 100 µM | [15] > 100 µM | [17] > 100 µM | [18] > 100 µM | [13] > 100 µM | [14] > 100 µM
> 100 µM: [8]

NNC(=O)c1nnn(CCc2ccccc2)c1C(=O)NN
> 100 µM: [8]
inactive: [1] > 100 µM | [2] > 100 µM | [4] > 100 µM | [5] > 100 µM | [7] > 100 µM | [9] > 100 µM | [11] > 100 µM | [12] > 100 µM | [19] > 100 µM | [15] > 100 µM | [16] > 100 µM | [17] > 100 µM | [13] > 100 µM | [14] 68.2 µM

COc1ccc(C=O)c([N+](=O)[O-])c1
inactive: [1] 64.6 µM | [2] 38.1 µM | [3] 98.6 µM | [4] 58.6 µM | [5] 17 µM | [6] > 100 µM | [7] 22.8 µM | [9] 37.5 µM | [10] 52.1 µM | [11] 66.2 µM | [12] 37.7 µM | [15] 40.7 µM | [16] 3.71 µM | [17] 4.2 µM | [18] > 100 µM | [14] 87.7 µM
9.27 µM: [8]

COc1cc(/C=N\c2nc(-c3ccc(NS(=O)(=O)c4ccc(Cl)c(OC)c4)cc3)cs2)ccc1O
inactive: [1] > 100 µM | [2] 95.5 µM | [3] 43.3 µM | [4] 50.7 µM | [5] 62.8 µM | [6] 37.6 µM | [7] 29.2 µM | [10] 89.5 µM | [11] > 100 µM | [19] 28.8 µM | [15] > 100 µM | [16] 27.9 µM | [17] 26.1 µM
> 100 µM: [8]
